Source: patent US20100273189A1, “NON SEPARATION ASSAYS WITH SELECTIVE SIGNAL INHIBITORS” (BECKMAN COULTER, INC., priority 2009, published 2010)
Each block holds one compound with its values, some of them ahead of it.

Key:
[1] = tested on: PSA; assay: Screening SSIA by homogeneous PSA immunoassay; assay type: biochemical; settings: PSA 129 ng/mL (S5) vs zero
Protocol: This example presents one method used for testing of candidate compounds for functionality as SSIA in assays of the present disclosure. Testing was conducted in a model screening immunoassay of the protein PSA. Mouse anti-PSA tests were run using a 96-well microtiter plate format. […] The plate was incubated at 37° C. for 10 minutes. A 5 μL aliquot of the test compound (various concentrations) was added to each well. Chemiluminescence was triggered by the addition of 100 μL of a solution of trigger solution A. The chemiluminescent flash was integrated for 5 seconds after the addition of the trigger solution using a Luminoskan Asent® plate luminometer, (Thermo Fischer Scientific, Inc., Waltham, Mass.).
It is desirable that the improvement factor be at least 2 (S5/S0≧ about 20-30) and more desirable that improvement factor be at least 5 (S5/S0≧ about 50), yet more desirable that S5/S0 be ≧100 in the present screen.

[2] = molecular target: T1, biotinylated HRP (Armoracia rusticana, UniProt P00433); assay: Model system for selection of SSIA (M280 btn-BSA-AK1-streptavidin particles + Btn-HRP:HRP); assay type: biochemical; settings: for S/S0: Btn-HRP 0 ng/mL vs 0; for S/S0 / S1/S0 / S2/S0 / S3/S0 / S4/S0 / effect in the model system / utility as SSIA: SSIA 100 μM; for B-HRP0 light intensity: Btn-HRP 0 ng/mL; for B-HRP0 light intensity / B-HRP1 light intensity / B-HRP10 light intensity / B-HRP100 light intensity / B-HRP250 light intensity: total HRP 500 ng/mL, SSIA final 100 μM; for S1/S0: Btn-HRP 1 ng/mL vs 0; for B-HRP1 light intensity: Btn-HRP 1 ng/mL; for S2/S0: Btn-HRP 10 ng/mL vs 0; for B-HRP10 light intensity: Btn-HRP 10 ng/mL; for S3/S0: Btn-HRP 100 ng/mL vs 0; for B-HRP100 light intensity: Btn-HRP 100 ng/mL; for S4/S0: Btn-HRP 250 ng/mL vs 0; for B-HRP250 light intensity: Btn-HRP 250 ng/mL; for effect in the model system / utility as SSIA: conclusion in words
T1 construct: purchased Roche Diagnostics, Indianapolis, Ind., USA
T1 sequence (P00433 31-338 limits assumed): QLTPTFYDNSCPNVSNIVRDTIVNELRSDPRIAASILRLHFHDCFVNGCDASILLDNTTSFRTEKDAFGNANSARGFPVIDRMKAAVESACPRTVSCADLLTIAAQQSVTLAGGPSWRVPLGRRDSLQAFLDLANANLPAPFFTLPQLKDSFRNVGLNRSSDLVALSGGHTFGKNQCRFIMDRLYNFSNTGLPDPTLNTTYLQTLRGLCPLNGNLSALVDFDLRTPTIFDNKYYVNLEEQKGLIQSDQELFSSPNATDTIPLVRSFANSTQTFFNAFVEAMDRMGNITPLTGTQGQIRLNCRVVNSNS
Protocol: The model system uses a microparticle conjugated to BSA (bovine serum albumin) labeled with a […] and acridan ketenedithioacetal chemiluminescent label (AK1) as the chemiluminescent-labeled sbp, and biotinylated HRP as the activator-labeled specific binding pair. In the model system, varying amounts of Btn-HRP is added to the chemiluminescent-labeled specific binding pair at 0, 1, 10, 100 and 250 ng/mL. Additional unlabeled HRP is added to reach a total HRP of concentration of 500 ng/mL in each reaction mixture. The unlabeled HRP in combination with the activator-labeled sbp was provided to the chemiluminescent-labeled sbp microparticles to emulate sample. A compound for assessment as an SSIA was also added. This reaction mixture of the model system is then triggered by addition of trigger solution in a manner of assays of the present disclosure.
To prepare the chemiluminescent-labeled sbp on microparticles, Bovine Serum Albumin (BSA) was biotinylated with 4× molar excess of biotin-LC-sulfoNHS (Pierce Biotechnology Inc., Rockford, Ill., USA). Unbound reactants were removed via desalting or dialysis. The biotin-BSA was then reacted with a 5× molar excess of acridan ketenedithioacetal AK1 in 20 mM sodium phosphate pH 7.2: DMSO 75:25, v/v) followed by desalting in the same buffer. The dual labeled (biotin and AK1) BSA was then coupled with tosyl activated M-280 microparticles (Invitrogen Corporation, Carlsbad, Calif., USA) in a 0.1 M borate buffer pH 9.5 at a concentration of ca. 20 μg labeled BSA per mg of microparticles for 16-24 h at 40° C. After coupling the microparticles were stripped for 1 h at 40° C. with 0.2 M TRIS base, 2% SDS, pH ˜11. The stripping process was repeated one additional time. Microparticles were then suspended in a 0.1% BSA/TRIS buffered saline (BSA/TBS) buffer and streptavidin (SA) was added at approximately 15 μg SA per mg microparticles. Streptavidin was mixed with the microparticles for 45-50 min at room temperature. The microparticles were then washed three times and suspended in the same BSA/TBS.
HRP, (Roche Diagnostics, Indianapolis, Ind., USA) was biotinylated with 4× molar excess of biotin-LC-sulfoNHS (Pierce Biotechnology Inc., Rockford, Ill., USA). Unbound reactants were removed via desalting or dialysis.
Each SSIA compound for assessment was dissolved in Buffer II at a concentration at least 10× of final concentration of the reaction mixture (after the addition of the trigger solution)
Paramagnetic particles (PMP): (M280)-(btn-BSA-AK)-(Streptavidin);
Sample Emulator: B-HRP:HRP; 500 ng/mL total with titration of B-HRP:HRP at Total HRP concentration of 500 ng/mL, with Btn-HRP variations: 0, 1, 10, 100 and 250 ng/mL.
SSIA: According to tables below in BUFFER II targeted to give a final concentration of 100 μM.
Trigger solution A is defined above.
5 μl of 1 mg/ml of dual-labeled (biotin and AK1) BSA M280 particles were mixed with 45 μl of working concentration SSIA in Buffer II. The assay volume brought to […] by adding 15 μl of Buffer II. 15 μl of sample containing Btn-HRP:HRP at different ratios (The amount of biotinylated-HRP varied from 0, 1, 10, 100 and 250 ng/mL) was added. The reaction mixture was incubated for 30 min at 37° C., then 100 μL of trigger solution was added and the light intensity recorded. Total volume of reaction mixture, including trigger solution was […] with a final concentration of 100 μM of SSIA.

[3] = test compound final conc. 0.122 mM
[4] = test compound final conc. 0.244 mM

SMILES: COc1ccccc1O
S5/S0 [1, 3]: 13

SMILES: Nc1ncc[nH]1
S5/S0 ([1]; test compound final conc. 24.4 mM): 14

SMILES: Nc1cc(C[C@H](N)C(=O)O)ccc1O
S5/S0 [1, 4]: 448

SMILES: O=C(O)c1cccc(O)c1O
S5/S0 [1, 3]: 22

SMILES: COc1ccccc1N
S5/S0 [1, 3]: 7

SMILES: O=C(c1ccccc1)C1c2ccccc2Nc2ccccc21
S5/S0 [1, 3]: 9

SMILES: COc1cc(C(C)(C)C)c(O)c(C(C)(C)C)c1
S5/S0 [1, 3]: 19

SMILES: c1ccc2c(c1)Cc1ccccc1S2
S5/S0 [1, 3]: 9

SMILES: O=c1c2ccccc2[nH]c2ccccc12
S5/S0 [1, 3]: 14

SMILES: NN [NH2NH2]
S5/S0 ([1]; test compound final conc. 244 uM): 15

SMILES: O=C(O)c1ccc(O)c(O)c1
S5/S0 [1, 3]: 178

SMILES: O=C1C(O)=C(O)C(=O)C(O)=C1O
S5/S0 ([1]; test compound final conc. 0.061 mM): 51

SMILES: O=c1c(O)c(-c2ccccc2)oc2cc(O)ccc12
S5/S0 [1, 3]: 14

SMILES: OB(O)c1cc(Cl)ccc1O
S5/S0 [1, 4]: 22

SMILES: CC1=C(O)C(=O)C(C)O1 (stereo not drawn)
S5/S0 ([1]; test compound final conc. 1.25 mM): 237

SMILES: Nc1ccc2[nH]ncc2c1
S5/S0 ([1]; test compound final conc. 12.2 mM): 10

SMILES: Oc1ccc([C@@H]2Oc3cc(O)c(O)cc3C[C@@H]2O)cc1O
S5/S0 [1, 3]: 323

SMILES: Nc1ccc(O)cc1O
S5/S0 ([1]; test compound final conc. 0.030 mM): 161

SMILES: C=CCc1ccc(O)c(OC)c1
S5/S0 [1, 4]: 30

SMILES: O=C(O)C1c2ccccc2Oc2ccccc21
S5/S0 [1, 3]: 7

SMILES: Nc1cc2ccccc2cc1O
S5/S0 [1, 4]: 67

SMILES: Nc1c(O)ccc2ccccc12
S5/S0 [1, 3]: 63

S/S0 [2]: 1
B-HRP0 light intensity [2]: 35,016
S1/S0 [2]: 2
B-HRP1 light intensity [2]: 71,751
S2/S0 [2]: 70
B-HRP10 light intensity [2]: 2,450,949
S3/S0 [2]: 246.9
B-HRP100 light intensity [2]: 8,647,037
S4/S0 [2]: 252.7
B-HRP250 light intensity [2]: 8,847,921
effect in the model system / utility as SSIA [2]: no effect
SMILES: O=C(O)CCCC[C@@H]1CCSS1 (racemic) [Lipoic Acid]

S/S0 [2]: 1
B-HRP0 light intensity [2]: 972
S1/S0 [2]: 2.9
B-HRP1 light intensity [2]: 2,808
S2/S0 [2]: 454.2
B-HRP10 light intensity [2]: 441,455
S3/S0 [2]: 6076.7
B-HRP100 light intensity [2]: 5,906,521
S4/S0 [2]: 6587.9
B-HRP250 light intensity [2]: 6,403,425
effect in the model system / utility as SSIA [2]: demonstrating utility as SSIA
SMILES: Nc1ccc(C(=O)O)cc1O [4-Amino-3-hydroxybenzoic acid, 4-amino-3-hydroxybenzoic acid]

S/S0 [2]: 1
B-HRP0 light intensity [2]: 6,051
S1/S0 [2]: 1.8
B-HRP1 light intensity [2]: 10,924
S2/S0 [2]: 278.7
B-HRP10 light intensity [2]: 1,686,079
S3/S0 [2]: 1437.5
B-HRP100 light intensity [2]: 8,698,069
S4/S0 [2]: 1699.4
B-HRP250 light intensity [2]: 10,282,504
SMILES: Cc1c(O)cc2c(c1C)O[C@](C)(CCC[C@H](C)CCC[C@H](C)CCCC(C)C)CC2 [(+)-gamma-Tocopherol, (+)-y-Tocopherol]

B-HRP0 light intensity [2]: 64,051
B-HRP1 light intensity [2]: 81,452
B-HRP10 light intensity [2]: 1,073,968
B-HRP100 light intensity [2]: 5,944,792
SMILES: Oc1ccc(C=Cc2cc(O)cc(O)c2)cc1 [Resveratrol]

S/S0 [2]: 1
B-HRP0 light intensity [2]: 264
S1/S0 [2]: 3.6
B-HRP1 light intensity [2]: 961
S2/S0 [2]: 112.3
B-HRP10 light intensity [2]: 29,645
S3/S0 [2]: 18626.9
B-HRP100 light intensity [2]: 4,917,499
S4/S0 [2]: 33275
B-HRP250 light intensity [2]: 8,784,595
effect in the model system / utility as SSIA [2]: demonstrating utility as SSIA
SMILES: CC1(C)OC[C@@H]([C@H]2OC(=O)C(O)=C2O)O1 [5,6iso-propyliene ascorbic acid, 5,6-Isopropylidene-L-Ascorbic acid]
